The record followed here is ChEMBL document CHEMBL1142498 (J Med Chem, 2008).

Molecules are shown by their SMILES.

The target of assay [1] is Sodium-dependent serotonin transporter (Rattus norvegicus, UniProt P31652).
Description: Displacement of [3H]paroxetine from serotonin transporter in Sprague-Dawley rat frontal cortical membrane
The species named for assay [2] is Rattus norvegicus. Nature of the assay: Displacement of [3H]prazosin from alpha1 adrenergic receptor in Sprague-Dawley rat cortical membrane at 1 uM. (Displacement assays read how much labelled ligand stays bound in the presence of the test substance.)
Assay [3] concerns the target T1, 5-hydroxytryptamine receptor 1A (Homo sapiens, UniProt P08908).
T1 sequence (P08908 whole entry): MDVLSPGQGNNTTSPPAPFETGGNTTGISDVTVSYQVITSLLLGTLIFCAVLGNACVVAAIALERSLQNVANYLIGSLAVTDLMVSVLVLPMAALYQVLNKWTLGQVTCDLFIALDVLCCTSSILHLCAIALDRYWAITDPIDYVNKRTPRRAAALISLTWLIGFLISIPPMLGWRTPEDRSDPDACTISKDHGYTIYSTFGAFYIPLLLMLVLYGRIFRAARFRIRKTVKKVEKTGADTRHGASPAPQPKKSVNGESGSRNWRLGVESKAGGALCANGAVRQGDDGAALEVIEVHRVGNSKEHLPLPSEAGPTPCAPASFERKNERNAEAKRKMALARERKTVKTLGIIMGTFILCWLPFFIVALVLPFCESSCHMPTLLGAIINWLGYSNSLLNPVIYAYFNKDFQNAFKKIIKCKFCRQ
Description: Activity at human cloned 5HT1A receptor expressed in CHO cells assessed as blockade of 5-HT-stimulated [35S]GTPgammaS binding

Assay [4] has as its target Sodium-dependent serotonin transporter (Homo sapiens, UniProt P31645). It is filed as cell-based, JAR.
Description: Inhibition of 5-HT transporter-mediated [3H]5HT uptake in human Jar cells
Assay [5] addresses T1, 5-hydroxytryptamine receptor 1A. Nature of the assay: biochemical.
Assay [6] concerns the target T2, 5-hydroxytryptamine receptor 1A (Homo sapiens) (UniProt P08908).
T2 sequence (whole entry): T1 sequence (P08908 whole entry)
The assay is described as follows: Displacement of [3H]8-OH-DPAT from human recombinant 5HT1A receptor expressed in CHO cells at 1uM. The format is cell-based.

Chain of Sodium-dependent serotonin transporter (Homo sapiens, UniProt P31645) (P31645 whole entry): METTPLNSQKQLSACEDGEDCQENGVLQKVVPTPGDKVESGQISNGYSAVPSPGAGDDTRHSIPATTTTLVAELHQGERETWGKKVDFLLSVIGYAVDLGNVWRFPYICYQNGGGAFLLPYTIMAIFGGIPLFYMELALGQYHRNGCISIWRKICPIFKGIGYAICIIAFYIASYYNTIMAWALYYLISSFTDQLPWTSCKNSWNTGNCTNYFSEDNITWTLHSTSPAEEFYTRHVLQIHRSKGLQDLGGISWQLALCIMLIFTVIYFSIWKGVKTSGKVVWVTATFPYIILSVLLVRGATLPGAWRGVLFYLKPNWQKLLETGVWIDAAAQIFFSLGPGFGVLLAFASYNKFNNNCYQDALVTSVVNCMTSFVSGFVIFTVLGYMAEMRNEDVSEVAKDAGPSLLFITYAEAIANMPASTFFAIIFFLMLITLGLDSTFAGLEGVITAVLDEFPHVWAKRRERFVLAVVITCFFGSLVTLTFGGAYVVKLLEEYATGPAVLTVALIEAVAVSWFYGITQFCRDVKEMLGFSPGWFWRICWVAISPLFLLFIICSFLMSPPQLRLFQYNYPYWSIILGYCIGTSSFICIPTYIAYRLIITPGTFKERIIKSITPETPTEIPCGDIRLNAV
Chain of Sodium-dependent serotonin transporter (Rattus norvegicus, UniProt P31652) (P31652 whole entry): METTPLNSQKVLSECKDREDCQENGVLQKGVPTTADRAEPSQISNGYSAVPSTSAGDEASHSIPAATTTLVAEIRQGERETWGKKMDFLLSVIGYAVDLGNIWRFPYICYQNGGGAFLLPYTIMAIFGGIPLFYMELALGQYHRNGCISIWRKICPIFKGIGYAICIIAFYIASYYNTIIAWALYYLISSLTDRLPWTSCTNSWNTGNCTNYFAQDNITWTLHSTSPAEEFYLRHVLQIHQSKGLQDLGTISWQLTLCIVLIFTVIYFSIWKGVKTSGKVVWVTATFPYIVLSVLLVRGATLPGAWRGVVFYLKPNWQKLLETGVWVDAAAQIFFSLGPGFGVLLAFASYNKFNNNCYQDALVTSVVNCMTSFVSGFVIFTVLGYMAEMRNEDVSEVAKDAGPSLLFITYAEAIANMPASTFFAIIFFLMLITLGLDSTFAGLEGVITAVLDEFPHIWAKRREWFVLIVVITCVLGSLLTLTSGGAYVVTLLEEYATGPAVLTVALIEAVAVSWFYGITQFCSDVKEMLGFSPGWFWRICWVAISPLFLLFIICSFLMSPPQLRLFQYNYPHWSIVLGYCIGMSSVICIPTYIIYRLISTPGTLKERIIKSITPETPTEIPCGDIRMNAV

For orientation: Ki means a measure of affinity in units of concentration, obtained from inhibition or displacement. Lower therefore signals tighter binding. For orientation: IC50 means the concentration that gives 50% inhibition. Low values mean greater potency, high ones weaker potency. Take `O=C(NCC1CC1)c1ccc(F)c2c1CC(N(CCCc1c[nH]c3ccc(F)cc13)C1CCC1)CO2` (stereo not drawn): the inhibitory constant (Ki) in assay [1] came to 6.91 nM. The compound also had an Activity in assay [2] of 31%. In addition, the IC50 in assay [3] is greater than 1000 nM; in assay [4], 43.6 nM.

In the case of `CCCN(CCCc1c[nH]c2ccc(F)cc12)[C@H]1COc2c(F)ccc(C(=O)NC)c2C1`, the Ki stood at 11.3 nM in assay [1] and 2.64 nM in assay [5]. This compound also returned an Activity in assay [2] of 39%. Further, the IC50 in assay [3] was found to be 752 nM; in assay [4], 47 nM.

`O=C(NC1CCCCC1)c1ccc(F)c2c1CC(N(CCCc1c[nH]c3ccc(F)cc13)C1CCC1)CO2` (stereo not drawn): the Activity in assay [2] came out at 21%; in assay [6] it was 44%. Moreover, the figures for the IC50 in assay [3] and in assay [4] were greater than 1000 nM and 144 nM, respectively.

Take `O=C(O)c1ccc(F)c2c1CC(N(CCCc1c[nH]c3ccc(F)cc13)C1CCC1)CO2` (stereo not drawn): the Activity in assay [2] came to 8%; in assay [6], 4%. Moreover, the results for the IC50 in assay [3] and in assay [4] were greater than 2000 nM and 1030 nM, respectively.

For `NC(=O)c1ccc(Cl)c2c1CC(N(CCCc1c[nH]c3ccc(F)cc13)C1CCC1)CO2` (single isomer, unassigned; (-)), the figures for the Ki in assay [1] and in assay [5] were 1.98 nM and 10.9 nM, respectively. The 50% inhibitory concentration (IC50) in assay [3] is 125 nM; in assay [4], 61.4 nM.

Turning to `CCCN(CCCc1c[nH]c2ccc(F)cc12)[C@H]1COc2cccc(C(N)=O)c2C1`, the results for the Ki in assay [1] and in assay [5] were 23.4 nM and 0.93 nM, respectively. In assay [2], this compound showed an Activity of 31%. In assay [4], it took 146 nM to reach half-maximal inhibition (IC50).

For the compound `N#Cc1ccc2[nH]cc(CCCN(C3CCC3)C3COc4c(F)ccc(C(N)=O)c4C3)c2c1` (single isomer, unassigned; (-)), the inhibition constant (Ki) worked out at 2.44 nM in assay [1] and 1.98 nM in assay [5]. For the same compound, the figures for the IC50 in assay [3] and in assay [4] were 195 nM and 24.1 nM, respectively.

For `N#Cc1ccc2[nH]cc(CCCN(C3CCC3)C3COc4c(F)ccc(C(N)=O)c4C3)c2c1` (single isomer, unassigned; (+)), the Ki is 9.05 nM in assay [1] and 258 nM in assay [5]. In addition, the concentration for half-maximal inhibition (IC50) was found to be 1000 nM in assay [3] and 10.1 nM in assay [4].

In assay [1], `CC(C)NC(=O)c1ccc(F)c2c1CC(N(CCCc1c[nH]c3ccc(F)cc13)C1CCC1)CO2` (stereo not drawn) yielded a Ki of 11.3 nM. In addition, in assay [2], the Activity is 4%. For the same compound, the results for the IC50 in assay [3] and in assay [4] were greater than 2000 nM and 44.7 nM, respectively.

Take `CCNC(=O)c1ccc(F)c2c1CC(N(CCCc1c[nH]c3ccc(F)cc13)C1CCC1)CO2` (stereo not drawn): the Ki in assay [1] is 9.47 nM. This compound displayed an Activity in assay [2] of 12%. In addition, the IC50 in assay [3] is greater than 1000 nM; in assay [4], 27.9 nM.

Take `CCCN(CC1CCc2[nH]c3ccc(F)cc3c2C1)[C@H]1COc2c(F)ccc(C(N)=O)c2C1` (stereo in doubt; 58a): the Ki in assay [1] was greater than 1000 nM. Also, the IC50 in assay [3] and in assay [4] was greater than 1000 nM throughout.

With `CNC(=O)c1ccc(F)c2c1C[C@@H](N(CCCc1c[nH]c3ccc(F)cc13)C1CCC1)CO2`, the Ki amounted to 10.2 nM in assay [1] and 1.32 nM in assay [5]. Moreover, the Activity in assay [2] was 0%. Further, the half-maximal inhibitory concentration (IC50) in assay [3] was 262 nM; in assay [4], 147 nM.

In the case of `CCCN(CCCc1c[nH]c2ccc(F)cc12)C1COc2c(F)ccc(OC)c2C1` (stereo not drawn), the results for the inhibitory constant (Ki) in assay [1] and in assay [5] were 12.5 nM and 19.4 nM, respectively. Moreover, it took 442 nM to reach half-maximal inhibition in assay [4] (IC50).

As to `NC(=O)c1ccc(Cl)c2c1CC(N(CCCc1c[nH]c3ccc(F)cc13)C1CCC1)CO2` (stereo in doubt; 35d), the inhibition constant Ki in assay [1] worked out at 3.74 nM. The results for the concentration for half-maximal inhibition (IC50) in assay [3] and in assay [4] were greater than 1000 nM and 56.5 nM, respectively.

`COc1ccc2[nH]cc(CCCN(C3CCC3)C3COc4c(F)ccc(C(N)=O)c4C3)c2c1` (stereo not drawn): the Ki in assay [1] is greater than 1000 nM. The IC50 in assay [3] turned out to be 419 nM; in assay [4] it was 834 nM.
